Results on two molecules are retold here after patent US20240197655A1 (REPUBLIC OF KOREA(MASAN NATIONAL TUBERCULOSIS HOSPITAL), priority 2021, published 2024).

Series [1] has as its system human colonic epithelial cells (HCT-8). In words: WST-8 cell viability and LDH cytotoxicity assay. It is filed as cell-based. The note with it: HCT-8, 24 hours, FIG. 7. The method, then: (§1) THP-1 (ATCC TIB-202) and HCT-8 (ATCC CCL-244) cells were measured in regards to cell viability and cytotoxicity of CC using a WST-8 cell viability assay kit (MediFab, S. Korea) and a CytoTox 96® non-radioactive cytotoxicity assay kit (Promega, Madison, WI, USA), respectively. Differentiated THP-1 cells (1.0×10^5 cells/well) and HCT-8 cells (2.0×10^4 cells/well) were placed in 96-well plates and incubated at 37° C. for 24 hours. Here, CC was added to the cells at different concentrations. For cell viability assay, 10 μL of the reagent (10% medium volume) was added to each well, followed by incubation for 4 hours. The resulting color was measured at 450 nm. For LDH cytotoxicity assay, 50 μL of a reagent for LDH detection was added to each well, and incubation was performed in the dark for 30 minutes. The resulting color was measured at 490 nm. In this regard, the cells treated with 1% Triton™ X-100 were used as a positive control, and those treated with DMSO were all tested negative in both experiments.
Background: Tetrazolium dyes change colour on reduction, which living cells bring about.

The subject of series [2] is THP-1 cells. In words: WST-8 cell viability and LDH cytotoxicity assay. It is filed as cell-based, human. The note with it: THP-1, 24 hours, FIG. 7. The method, then:
as §1

Series [3] concerns THP-1 cells. The method, then:
(§2) THP-1 cells were treated with phorbol 12-myristate 13-acetate (PMA; Sigma-Aldrich, USA) at a final concentration of 50 nM for 40 hours. Infection with M. abscessus containing pTEC15 green fluorescence or luciferase was performed at 37° C. in the presence of 5% CO2 at a multiplicity of […] (MOI) of 2:1 for 3 hours. After extensive washing with PBS, the cells were incubated in a culture medium containing […] of gentamicin for 30 minutes and washed again with PBS. […] Macrophages were stained with SYTO 60 (Invitrogen, USA) dye at a final concentration of 5 μM at 37° C. in a 5% CO2 atmosphere for 30 minutes. On the day 4, luminescence was measured with a Synergy H1 microplate reader (Bio-Tek, USA). The fluorescence microscopic images of living cells were captured with a Lionheart™ FX automated microscope (BIO-Tek, USA). The Gen5™ 3.05 software object feature was available for identification of the cells in the imaging field.
(§3) The use of a double read assay results in dose-response curves for both inhibition for M. abscessus and cytotoxicity to THP-1 cells as determined in a same experiment. […] The cytotoxicity was determined using a SYTO 60 probe.

Series [4] concerns M. abscessus (lux) in THP-1 cells. It is filed as cell-based, Mycobacterium abscessus. The note with it: THP-1 infection, data not shown. The method, then: as §2, §3
Series [5] concerns M. abscessus (ATCC 19997). To be noted: known value used for selecting resistant mutants; cited from earlier work.
The subject of series [6] is M. abscessus in biofilm culture. In words: Biofilm assay (Calgary Biofilm Device, MBEC Assay). It is filed as cell-based, Mycobacterium abscessus. The method, then: The first biofilm assay system was the Calgary Biofilm Device used by Bardouniotis et al. to evaluate the bactericidal activity or minimum biofilm eradication concentration (MBEC) of a biocidal active substance against Mycobacterium phlei. In the present invention, MBEC Assay® (Innovotech, Edmonton, Canada) for MBEC measurement was used. Biofilm formation was performed as follows. […] Then, the 96-well microliter plate was covered with a 96-peg lid and incubated for 4 days. After washing, the bacteria remaining on the biofilms were removed from the wells by ultrasonication in the medium. Finally, after incubation, the adherent bacteria remaining on the biofilms with or without antibiotics were quantified with resazurin.

The next series has as its system biofilm-forming microbes. To be noted: Munoz-Egea et al.; cited from earlier work.
Series [7] concerns M. abscessus (ATCC 19997). Put plainly: Resazurin (REMA) broth microdilution dose-response, aerobic culture. It is filed as cell-based, Mycobacterium abscessus. For orientation: Resazurin is reduced to fluorescent resorufin, in cell work by metabolically active cells.
Procedure: Three strains of M. abscessus (ATCC 19997), M. avium (ATCC 25291) and M. intracellulare (ATCC 13950) were cultured at 37° C. in Middlebrook 7H9 broth (BD, 27130) supplemented with 10% OADC (BD, 212240), 0.5% glycerol and 0.05% Tween-80.
The minimum inhibitory concentration (MIC) was determined according to the guideline by the CLSI (Clinical & Laboratory Standards Institute). The CLSI broth microdilution method recommended by MH was used with an inoculum having an OD of 0.001/ml in the exponential phase of growth.
Then, incubation was carried out at 37° C. for 3 hours, followed by adding 40 mL of 0.025% resazurin. After incubation overnight, the fluorescence of resorufin (metabolite resazurin) was measured with a Synergy H1 Hybrid Multi-Mode Reader (Bio-Tek, VT, USA). IC50 values were calculated from raw fluorescence data using Prism 5.0 software (GraphPad Inc., La Jolla, CA, USA). Experiments were performed in triplicates.
Series [8] deals with clarithromycin-resistant M. abscessus mutants (M. abscessus CLR-R). In words: REMA dose-response against clarithromycin-resistant mutants. It is filed as cell-based, Mycobacterium abscessus. The note with it: mutant produced in presence of 100 mg/L CLR, FIG. 3. The method, then:
(§4) Experiments were performed in triplicates.
It was also tested to determine whether CC inhibits the growth of the drug-resistant strains produced in the present invention in the presence of high concentration (100 mg/L) CLR used for therapy against M. abscessus. […] Accordingly, CC is considered as an active drug for the treatment of CLR-resistant M. abscessus.

The test system of series [9] is M. abscessus (ATCC 19997) under anaerobic conditions. In words: Resazurin dose-response under anaerobic non-replicating culture. It is filed as cell-based, Mycobacterium abscessus. The method, then:
In order to determine the antibiotic ability against M. abscessus (ATCC 19997) under anaerobic conditions, a bacterial culture (5×10^6 bacteria/mL) was inoculated into 5 mL of 7H9 broth (BD, 271310) supplemented with 10% OADC. The bacterial culture was placed in an anaerobic jar (BD BBLIM GasPAK™ Jar; Franklin Lakes, NJ, USA). Here, a BD BBLIM GasPAK™ anaerobic indicator (methylene blue for monitoring oxygen depletion) was used. The bacteria were cultured in cation-adjusted Mueller-Hinton broth (MH; Sigma-Aldrich, 90922) for drug susceptibility testing.
as §4
A comparison was made between the growth rates under aerobic, anaerobic and restored aerobic conditions in a same culture medium.

In brackets after ≈: the same amount, converted by molar mass. Counter-ions that a name gives are not always drawn.

`CCN(CC)CCOc1ccc(C(=C(Cl)c2ccccc2)c2ccccc2)cc1` [CC, clomiphene citrate]: the “effect on cell viability” value (in series [1]; with THP-1 cells [2]) was “no harm on the viability” each time. Besides, the “cytotoxicity to THP-1 cells” value with THP-1 cells [3] is listed as “without cytotoxicity”.
In general, IC50 refers to the point on the concentration scale where inhibition reaches its midpoint. A high value points to weaker potency. `CC[C@H]1OC(=O)[C@H](C)[C@@H](O[C@H]2C[C@@](C)(OC)[C@@H](O)[C@H](C)O2)[C@H](C)[C@@H](O[C@@H]2O[C@H](C)C[C@H](N(C)C)[C@H]2O)[C@](C)(OC)C[C@@H](C)C(=O)[C@H](C)[C@@H](O)[C@]1(C)O` [CLR, clarithromycin]: the “effect on intracellular bacterial replication” value in series [4] is reported as “prevented bacterial replication”. Also, the “known MIC value” in [5] was 0.1 µg/mL. Also, the “MBEC relative to general MIC” value in [6] (MBEC vs MIC) was 2,000 fold. For the same molecule, the IC50 is more than 100 µg/mL in [6] (Mycobacteroides abscessus, biofilm culture, FIG. 4); 0.046 µg/mL (≈ 0.0615 µM) in series [7] (Mycobacteroides abscessus, ATCC19997, aerobic culture conditions, FIG. 4); 0.0778 µg/mL (≈ 0.104 µM) in series [9] (Mycobacteroides abscessus, ATCC19997, anaerobic culture conditions, FIG. 4). In series [6] (biofilm), the “MBEC for M. abscessus” value is given as “above 100 μg”. In addition, the “MBEC relative to MIC” value in the series with biofilm-forming microbes was 100,000 fold. Further, in series [7], the “general MIC” value worked out at 0.46 µg. Further, the “resistance of produced mutant to CLR” value in [8] is on record as “high drug resistance”. Besides, the “shift of the IC50 value, anaerobic versus aerobic” value in series [9] (anaerobic vs aerobic culture) came out at 2 fold.
